# Data as given in the supplement of paper PMC10307832.
# Key:
# Experiment in all cases: relative viability (nuclei count vs DMSO), 5 days (fraction); higher = more cells survive
# [1] = system: NCI-H596
# Procedure, shortened: (§1)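 Values are medians from duplicate plates. Each reflects relative viability, defined as the nuclei count of treated wells over that of vehicle wells. Lung cancer cell lines in 1536-well plates were pin-tool dosed one day after seeding with one drug alone or with a fixed anchor-drug dose plus five library-drug doses (not always all listed) in √10 steps, then fixed, stained and imaged at 4× after 5 days.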
# [2] = system: H3255
# Procedure, shortened: as §1
# [3] = system: NCI-H1650
# Procedure, shortened: as §1
# [4] = system: SK-LU-1
# Procedure, shortened: as §1
# [5] = system: NCI-H3122
# Procedure, shortened: as §1
# [6] = system: NCI-H322M
# Procedure, shortened: as §1
# [7] = system: NCI-H1755
# Procedure, shortened: as §1
# [8] = system: NCI-H23
# Procedure, shortened: as §1
# [9] = system: HCC-78
# Procedure, shortened: as §1
# [10] = system: NCI-H2087
# Procedure, shortened: as §1
# [11] = system: 201T
# Procedure, shortened: as §1
# [12] = system: NCI-H650
# Procedure, shortened: as §1
# [13] = system: NCI-H2085
# Procedure, shortened: as §1
# [14] = system: HCC-366
# Procedure, shortened: as §1
# [15] = system: LU99A
# Procedure, shortened: as §1
# [16] = system: COR-L23
# Procedure, shortened: as §1
# [17] = system: HARA
# Procedure, shortened: as §1
# [18] = system: NCI-H1651
# Procedure, shortened: as §1
# [19] = system: PC-3 [JPC-3]
# Procedure, shortened: as §1
# [20] = system: NCI-H460
# Procedure, shortened: as §1
smiles,measurement,setting,value
Nc1cccc2c1CN(C1CCC(=O)NC1=O)C2=O (configuration not stated) [Lenalidomide] + CC(C)C[C@H](NC(=O)[C@H](Cc1ccccc1)NC(=O)c1cnccn1)B(O)O [Bortezomib] (partner 0.002 µM),relative viability,[1]; first compound 0.253 µM,0.933
same,relative viability,[1]; first compound 0.8 µM,0.733
same,relative viability,[1]; first compound 2.53 µM,1.39
same,relative viability,[1]; first compound 8 µM,0.883
same,relative viability,[2]; first compound 0.253 µM,0.886
same,relative viability,[2]; first compound 0.8 µM,0.612
same,relative viability,[2]; first compound 2.53 µM,0.874
same,relative viability,[2]; first compound 8 µM,0.828
same,relative viability,[3]; first compound 0.253 µM,0.197
same,relative viability,[3]; first compound 0.8 µM,0.189
same,relative viability,[3]; first compound 2.53 µM,0.213
same,relative viability,[3]; first compound 8 µM,0.198
same,relative viability,[4]; first compound 0.253 µM,1.31
same,relative viability,[4]; first compound 0.8 µM,1.38
same,relative viability,[4]; first compound 2.53 µM,1.25
same,relative viability,[4]; first compound 8 µM,0.862
same,relative viability,[5]; first compound 0.253 µM,1.04
same,relative viability,[5]; first compound 0.8 µM,1.05
same,relative viability,[5]; first compound 2.53 µM,0.98
same,relative viability,[5]; first compound 8 µM,1.13
same,relative viability,[6]; first compound 0.253 µM,1.18
same,relative viability,[6]; first compound 0.8 µM,1.21
same,relative viability,[6]; first compound 2.53 µM,1.31
same,relative viability,[6]; first compound 8 µM,1.17
same,relative viability,[7]; first compound 0.253 µM,0.855
same,relative viability,[7]; first compound 0.8 µM,0.854
same,relative viability,[7]; first compound 2.53 µM,0.947
same,relative viability,[7]; first compound 8 µM,0.913
same,relative viability,[8]; first compound 0.253 µM,1.12
same,relative viability,[8]; first compound 0.8 µM,1.03
same,relative viability,[8]; first compound 2.53 µM,1.3
same,relative viability,[8]; first compound 8 µM,0.9
same,relative viability,[9]; first compound 0.253 µM,0.469
same,relative viability,[9]; first compound 0.8 µM,0.368
same,relative viability,[9]; first compound 2.53 µM,0.461
same,relative viability,[9]; first compound 8 µM,0.392
same,relative viability,[10]; first compound 0.253 µM,0.772
same,relative viability,[10]; first compound 0.8 µM,0.656
same,relative viability,[10]; first compound 2.53 µM,0.922
same,relative viability,[10]; first compound 8 µM,0.835
same,relative viability,[11]; first compound 0.253 µM,1.07
same,relative viability,[11]; first compound 0.8 µM,0.553
same,relative viability,[11]; first compound 2.53 µM,1.09
same,relative viability,[11]; first compound 8 µM,1.11
same,relative viability,[12]; first compound 0.253 µM,0.854
same,relative viability,[12]; first compound 2.53 µM,0.893
same,relative viability,[12]; first compound 8 µM,0.577
same,relative viability,[13]; first compound 0.253 µM,1.05
same,relative viability,[13]; first compound 0.8 µM,0.818
same,relative viability,[13]; first compound 2.53 µM,1.11
same,relative viability,[13]; first compound 8 µM,0.881
same,relative viability,[14]; first compound 0.253 µM,0.985
same,relative viability,[14]; first compound 0.8 µM,1.03
same,relative viability,[14]; first compound 2.53 µM,1.08
same,relative viability,[14]; first compound 8 µM,1.05
same,relative viability,[15]; first compound 0.253 µM,1.06
same,relative viability,[15]; first compound 0.8 µM,1.11
same,relative viability,[15]; first compound 2.53 µM,1.05
same,relative viability,[15]; first compound 8 µM,0.73
same,relative viability,[16]; first compound 0.253 µM,0.994
same,relative viability,[16]; first compound 0.8 µM,1.11
same,relative viability,[16]; first compound 2.53 µM,1.07
same,relative viability,[16]; first compound 8 µM,1.17
same,relative viability,[17]; first compound 0.253 µM,1.07
same,relative viability,[17]; first compound 0.8 µM,0.657
same,relative viability,[17]; first compound 2.53 µM,1.24
same,relative viability,[17]; first compound 8 µM,1.19
same,relative viability,[18]; first compound 0.253 µM,0.923
same,relative viability,[18]; first compound 0.8 µM,0.728
same,relative viability,[18]; first compound 2.53 µM,1.05
same,relative viability,[18]; first compound 8 µM,0.772
same,relative viability,[19]; first compound 0.253 µM,0.872
same,relative viability,[19]; first compound 0.8 µM,0.535
same,relative viability,[19]; first compound 2.53 µM,0.906
same,relative viability,[19]; first compound 8 µM,0.99
same,relative viability,[20]; first compound 0.253 µM,1.16
same,relative viability,[20]; first compound 0.8 µM,1.1
same,relative viability,[20]; first compound 2.53 µM,1.7
same,relative viability,[20]; first compound 8 µM,1.07
CCNC(=O)c1noc(-c2cc(C(C)C)c(O)cc2O)c1-c1ccc(CN2CCOCC2)cc1 [Luminespib] + CC(C)C[C@H](NC(=O)[C@H](Cc1ccccc1)NC(=O)c1cnccn1)B(O)O [Bortezomib] (partner 0.002 µM),relative viability,[1]; first compound 0.002 µM,1.03
same,relative viability,[1]; first compound 0.006325 µM,0.915
same,relative viability,[1]; first compound 0.06325 µM,1.07
same,relative viability,[1]; first compound 0.2 µM,0.999
same,relative viability,[2]; first compound 0.002 µM,0.615
same,relative viability,[2]; first compound 0.006325 µM,0.466
same,relative viability,[2]; first compound 0.02 µM,0.472
same,relative viability,[2]; first compound 0.06325 µM,0.376
same,relative viability,[2]; first compound 0.2 µM,0.194
same,relative viability,[3]; first compound 0.002 µM,0.209
same,relative viability,[3]; first compound 0.006325 µM,0.193
same,relative viability,[3]; first compound 0.02 µM,0.201
same,relative viability,[3]; first compound 0.06325 µM,0.222
same,relative viability,[3]; first compound 0.2 µM,0.194
same,relative viability,[4]; first compound 0.002 µM,1.19
same,relative viability,[4]; first compound 0.006325 µM,1.02
same,relative viability,[4]; first compound 0.02 µM,0.716
same,relative viability,[4]; first compound 0.06325 µM,0.199
same,relative viability,[4]; first compound 0.2 µM,0.203
same,relative viability,[5]; first compound 0.002 µM,1.01
same,relative viability,[5]; first compound 0.006325 µM,1.01
same,relative viability,[5]; first compound 0.02 µM,1.05
same,relative viability,[5]; first compound 0.06325 µM,0.165
same,relative viability,[5]; first compound 0.2 µM,0.199
same,relative viability,[6]; first compound 0.002 µM,1.21
same,relative viability,[6]; first compound 0.006325 µM,1.27
same,relative viability,[6]; first compound 0.02 µM,1.05
same,relative viability,[6]; first compound 0.06325 µM,1.32
same,relative viability,[6]; first compound 0.2 µM,0.814
same,relative viability,[7]; first compound 0.002 µM,0.992
same,relative viability,[7]; first compound 0.006325 µM,0.909
same,relative viability,[7]; first compound 0.02 µM,0.954
same,relative viability,[7]; first compound 0.06325 µM,0.528
same,relative viability,[7]; first compound 0.2 µM,0.169
same,relative viability,[8]; first compound 0.002 µM,1.23
same,relative viability,[8]; first compound 0.006325 µM,1.05
same,relative viability,[8]; first compound 0.02 µM,0.733
same,relative viability,[8]; first compound 0.06325 µM,0.119
same,relative viability,[8]; first compound 0.2 µM,0.117
same,relative viability,[9]; first compound 0.002 µM,0.441
same,relative viability,[9]; first compound 0.006325 µM,0.527
same,relative viability,[9]; first compound 0.06325 µM,0.745
same,relative viability,[9]; first compound 0.2 µM,0.262
same,relative viability,[10]; first compound 0.002 µM,1.03
same,relative viability,[10]; first compound 0.006325 µM,0.676
same,relative viability,[10]; first compound 0.02 µM,0.796
same,relative viability,[10]; first compound 0.06325 µM,0.141
same,relative viability,[10]; first compound 0.2 µM,0.142
same,relative viability,[11]; first compound 0.002 µM,1.11
same,relative viability,[11]; first compound 0.006325 µM,1.07
same,relative viability,[11]; first compound 0.02 µM,0.937
same,relative viability,[11]; first compound 0.06325 µM,1.09
same,relative viability,[11]; first compound 0.2 µM,1.09
same,relative viability,[12]; first compound 0.002 µM,0.737
same,relative viability,[12]; first compound 0.006325 µM,0.716
same,relative viability,[12]; first compound 0.02 µM,0.651
same,relative viability,[12]; first compound 0.06325 µM,0.124
same,relative viability,[12]; first compound 0.2 µM,0.103
same,relative viability,[13]; first compound 0.002 µM,0.979
same,relative viability,[13]; first compound 0.006325 µM,0.94
same,relative viability,[13]; first compound 0.02 µM,0.818
same,relative viability,[13]; first compound 0.06325 µM,0.509
same,relative viability,[13]; first compound 0.2 µM,0.344
same,relative viability,[14]; first compound 0.002 µM,1.01
same,relative viability,[14]; first compound 0.006325 µM,1.01
same,relative viability,[14]; first compound 0.02 µM,0.474
same,relative viability,[14]; first compound 0.06325 µM,0.025
same,relative viability,[14]; first compound 0.2 µM,0.0174
same,relative viability,[15]; first compound 0.002 µM,1.3
same,relative viability,[15]; first compound 0.006325 µM,1.11
same,relative viability,[15]; first compound 0.02 µM,0.538
same,relative viability,[15]; first compound 0.06325 µM,0.105
same,relative viability,[15]; first compound 0.2 µM,0.117
same,relative viability,[16]; first compound 0.002 µM,1.02
same,relative viability,[16]; first compound 0.006325 µM,0.85
same,relative viability,[16]; first compound 0.02 µM,0.718
same,relative viability,[16]; first compound 0.06325 µM,0.079
same,relative viability,[16]; first compound 0.2 µM,0.079
same,relative viability,[17]; first compound 0.002 µM,1.12
same,relative viability,[17]; first compound 0.006325 µM,1
same,relative viability,[17]; first compound 0.02 µM,1.14
same,relative viability,[17]; first compound 0.06325 µM,0.474
same,relative viability,[17]; first compound 0.2 µM,0.0833
same,relative viability,[18]; first compound 0.002 µM,0.947
same,relative viability,[18]; first compound 0.006325 µM,0.864
same,relative viability,[18]; first compound 0.02 µM,0.91
same,relative viability,[18]; first compound 0.06325 µM,0.89
same,relative viability,[18]; first compound 0.2 µM,0.793
same,relative viability,[19]; first compound 0.002 µM,0.865
same,relative viability,[19]; first compound 0.006325 µM,0.812
same,relative viability,[19]; first compound 0.02 µM,0.977
same,relative viability,[19]; first compound 0.06325 µM,0.942
same,relative viability,[19]; first compound 0.2 µM,0.503
same,relative viability,[20]; first compound 0.002 µM,1.09
same,relative viability,[20]; first compound 0.006325 µM,1.14
same,relative viability,[20]; first compound 0.02 µM,0.0229
same,relative viability,[20]; first compound 0.06325 µM,0.011
same,relative viability,[20]; first compound 0.2 µM,0.0138
